Experimental findings from BindingDB's records for patent US11859014 (Emory University, 2024) are described below.

SMILES strings stand for the structures.

In test [1] the target is Genome polyprotein (Hu/NV/NV/1968/US, UniProt Q83883). The experiment in a line: Fret Assay. How it is done:
(§1) The ability of these compounds to inhibit the NoV, specifically Minerva virus protease catalytic Cys139 covalently (IC50 and Ki) was determined with an enzyme kinetic assay. NoV strains, specifically GII.4 such as the Minerva virus are responsible for causing the majority (80%) of infections in humans. The activity of the inhibitors was evaluated by monitoring the cleavage of a FRET substrate every one minute for 20 minutes (excitation/emission: 488/520 nm) using a SpectraMax M5 microplate reader (Molecular Devices, Sunnyvale CA). Serial dilutions of each inhibitor were incubated with enzyme for 90 minutes at 37° C. before addition of the FRET substrate to ensure complete inactivation. Commercially available protease inhibitors chymostatin and rupintrivir were used as controls.

Test [2] concerns the target Genome polyprotein (Norovirus Hu/GII.P4_GII.4/Minerva/2006/USA, UniProt A0A0K2E2J2). Kind of test: Fret Assay. How it is done: as §1

Sequence of Genome polyprotein (Norovirus Hu/GII.P4_GII.4/Minerva/2006/USA, UniProt A0A0K2E2J2) (A0A0K2E2J2 whole entry): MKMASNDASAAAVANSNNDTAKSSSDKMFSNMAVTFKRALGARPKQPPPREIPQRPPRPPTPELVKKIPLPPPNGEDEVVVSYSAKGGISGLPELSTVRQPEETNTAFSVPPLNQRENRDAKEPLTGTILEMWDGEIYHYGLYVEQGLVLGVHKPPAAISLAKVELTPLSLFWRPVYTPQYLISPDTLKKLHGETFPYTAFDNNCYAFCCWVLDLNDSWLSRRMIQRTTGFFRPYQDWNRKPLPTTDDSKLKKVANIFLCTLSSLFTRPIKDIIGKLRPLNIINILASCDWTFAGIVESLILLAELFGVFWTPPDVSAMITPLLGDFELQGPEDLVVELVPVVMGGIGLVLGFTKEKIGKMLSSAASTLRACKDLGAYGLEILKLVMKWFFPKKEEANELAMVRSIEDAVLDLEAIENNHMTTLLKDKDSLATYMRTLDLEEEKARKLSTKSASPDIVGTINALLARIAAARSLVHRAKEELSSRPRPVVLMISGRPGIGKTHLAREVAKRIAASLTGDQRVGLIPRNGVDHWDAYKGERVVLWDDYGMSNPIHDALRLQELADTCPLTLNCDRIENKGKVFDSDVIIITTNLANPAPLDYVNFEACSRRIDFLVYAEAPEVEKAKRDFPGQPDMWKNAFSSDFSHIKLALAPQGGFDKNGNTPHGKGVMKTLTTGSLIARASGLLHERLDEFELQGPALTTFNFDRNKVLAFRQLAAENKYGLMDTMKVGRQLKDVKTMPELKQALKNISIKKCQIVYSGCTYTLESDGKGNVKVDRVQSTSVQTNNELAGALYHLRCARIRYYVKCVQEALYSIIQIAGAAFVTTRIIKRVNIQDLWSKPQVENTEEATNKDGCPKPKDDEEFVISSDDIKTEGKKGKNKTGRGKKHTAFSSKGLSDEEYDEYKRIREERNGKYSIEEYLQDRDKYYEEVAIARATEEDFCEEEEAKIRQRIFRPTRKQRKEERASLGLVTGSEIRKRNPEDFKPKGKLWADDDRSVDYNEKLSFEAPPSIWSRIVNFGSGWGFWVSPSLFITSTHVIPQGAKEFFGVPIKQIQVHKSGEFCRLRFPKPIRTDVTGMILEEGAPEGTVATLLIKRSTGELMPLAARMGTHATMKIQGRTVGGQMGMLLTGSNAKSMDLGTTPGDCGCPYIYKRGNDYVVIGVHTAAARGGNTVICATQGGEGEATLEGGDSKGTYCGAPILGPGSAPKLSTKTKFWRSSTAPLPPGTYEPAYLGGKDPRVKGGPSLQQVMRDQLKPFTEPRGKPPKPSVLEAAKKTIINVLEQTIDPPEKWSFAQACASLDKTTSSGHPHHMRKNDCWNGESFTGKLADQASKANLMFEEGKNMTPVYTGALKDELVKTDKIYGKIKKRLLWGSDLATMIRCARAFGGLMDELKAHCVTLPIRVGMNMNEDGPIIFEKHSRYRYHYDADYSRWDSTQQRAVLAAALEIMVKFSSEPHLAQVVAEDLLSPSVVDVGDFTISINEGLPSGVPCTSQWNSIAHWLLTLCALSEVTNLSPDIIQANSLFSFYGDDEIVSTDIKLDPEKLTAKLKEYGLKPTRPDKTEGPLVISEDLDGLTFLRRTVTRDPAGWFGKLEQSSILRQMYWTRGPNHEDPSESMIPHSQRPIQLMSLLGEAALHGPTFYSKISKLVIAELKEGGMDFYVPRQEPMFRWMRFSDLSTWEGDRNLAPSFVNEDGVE
Sequence of Genome polyprotein (Hu/NV/NV/1968/US, UniProt Q83883) (Q83883 whole entry): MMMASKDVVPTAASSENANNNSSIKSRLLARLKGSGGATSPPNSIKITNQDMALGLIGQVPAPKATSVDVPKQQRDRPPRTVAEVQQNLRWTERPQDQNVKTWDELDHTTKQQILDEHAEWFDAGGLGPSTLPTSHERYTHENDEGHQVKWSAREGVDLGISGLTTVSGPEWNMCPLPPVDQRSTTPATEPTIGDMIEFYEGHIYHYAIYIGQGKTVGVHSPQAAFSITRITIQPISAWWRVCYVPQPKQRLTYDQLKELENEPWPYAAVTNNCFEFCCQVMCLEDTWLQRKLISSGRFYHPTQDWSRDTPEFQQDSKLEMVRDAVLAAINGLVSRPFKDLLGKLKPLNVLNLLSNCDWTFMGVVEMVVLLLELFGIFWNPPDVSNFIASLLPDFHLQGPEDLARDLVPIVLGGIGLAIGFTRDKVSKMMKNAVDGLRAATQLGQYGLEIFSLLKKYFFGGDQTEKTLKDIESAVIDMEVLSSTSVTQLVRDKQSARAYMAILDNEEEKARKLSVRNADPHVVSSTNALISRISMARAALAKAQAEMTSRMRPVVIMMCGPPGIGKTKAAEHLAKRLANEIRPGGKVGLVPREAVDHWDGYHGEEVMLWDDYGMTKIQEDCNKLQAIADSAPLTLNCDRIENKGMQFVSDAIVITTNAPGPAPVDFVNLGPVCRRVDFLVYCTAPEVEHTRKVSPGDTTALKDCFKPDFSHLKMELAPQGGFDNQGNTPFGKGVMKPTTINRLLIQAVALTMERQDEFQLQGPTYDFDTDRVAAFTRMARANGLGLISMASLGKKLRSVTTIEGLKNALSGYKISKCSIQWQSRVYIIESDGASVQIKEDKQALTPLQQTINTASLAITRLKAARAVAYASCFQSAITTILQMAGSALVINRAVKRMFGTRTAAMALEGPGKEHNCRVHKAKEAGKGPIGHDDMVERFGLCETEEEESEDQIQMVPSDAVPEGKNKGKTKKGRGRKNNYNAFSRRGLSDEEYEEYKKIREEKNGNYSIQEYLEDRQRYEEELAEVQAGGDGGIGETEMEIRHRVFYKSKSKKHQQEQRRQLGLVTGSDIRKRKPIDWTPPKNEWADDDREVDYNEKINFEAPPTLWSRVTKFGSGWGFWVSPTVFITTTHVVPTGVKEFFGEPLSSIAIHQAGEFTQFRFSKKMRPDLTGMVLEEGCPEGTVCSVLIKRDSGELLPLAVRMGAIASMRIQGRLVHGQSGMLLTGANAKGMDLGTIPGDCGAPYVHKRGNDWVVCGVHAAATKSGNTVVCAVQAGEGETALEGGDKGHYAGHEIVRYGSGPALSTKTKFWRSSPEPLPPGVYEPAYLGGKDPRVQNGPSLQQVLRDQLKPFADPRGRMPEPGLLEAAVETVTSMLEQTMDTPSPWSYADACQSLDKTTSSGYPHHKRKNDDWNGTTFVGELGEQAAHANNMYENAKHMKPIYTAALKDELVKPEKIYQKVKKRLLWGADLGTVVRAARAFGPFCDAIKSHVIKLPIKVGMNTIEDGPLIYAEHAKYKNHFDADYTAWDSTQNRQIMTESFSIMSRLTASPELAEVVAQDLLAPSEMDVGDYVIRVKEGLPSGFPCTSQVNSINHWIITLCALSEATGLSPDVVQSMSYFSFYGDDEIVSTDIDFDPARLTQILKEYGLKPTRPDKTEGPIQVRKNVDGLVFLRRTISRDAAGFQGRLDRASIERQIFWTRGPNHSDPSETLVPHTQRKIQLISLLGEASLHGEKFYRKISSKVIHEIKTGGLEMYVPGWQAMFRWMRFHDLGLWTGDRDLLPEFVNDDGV

One may read the IC50 as the concentration needed to halve the response being measured. A high value points to weaker potency. By Ki is commonly meant the equilibrium dissociation constant of an inhibitor or competing ligand from its target. A high value points to a looser hold on the target. The molecule `CC(C)C[C@H](NC(=O)[C@H](Cc1ccc(O)cc1)NC(=O)OCc1ccccc1)C(=O)N[C@H](C=O)C[C@@H]1CCCNC1=O` [US11859014, Compound 11] showed an IC50 in test [1] of 44 nM. The inhibition constant (Ki) in test [1] turned out to be 123 nM; in test [2], 427 nM.

In the case of `CC(C)C[C@H](NC(=O)[C@H](Cc1cccc2ccccc12)NC(=O)OCc1ccccc1)C(=O)N[C@H](C=O)C[C@@H]1CCCNC1=O` [US11859014, Compound 19], in test [1], the IC50 amounted to 80 nM and the inhibitory constant (Ki) is 155 nM. This molecule also registered a Ki in test [2] of 1190 nM.

As for `CC(C)C[C@H](NC(=O)[C@H](Cc1cccc2ccccc12)NC(=O)c1cnccn1)C(=O)N[C@H](C=O)C[C@@H]1CCCNC1=O` [US11859014, Compound 23], the IC50 in test [1] was found to be 96 nM; in test [2] it was 204 nM. In addition, the affinity in test [1] corresponds to a Ki of 528 nM.

Turning to `CC(C)C[C@H](NC(=O)[C@H](Cc1cccc2ccccc12)NC(=O)c1cnccn1)C(=O)N[C@H](C=O)C[C@@H]1CCNC1=O` [US11859014, Compound 29], in test [1], the IC50 is 112 nM and the inhibition constant (Ki) amounted to 350 nM. For the same molecule, the Ki in test [2] came to 670 nM.

In test [2], `CC(C)C[C@H](NC(=O)[C@H](Cc1ccc(F)cc1)NC(=O)OCc1ccccc1)C(=O)N[C@H](C=O)C[C@@H]1CCCNC1=O` [US11859014, Compound 35] registered an IC50 of 167 nM and an inhibitory constant (Ki) of 858 nM.

With `CC(C)C[C@H](NC(=O)[C@H](Cc1cccc2ccccc12)NC(=O)OCc1ccccc1)C(=O)N[C@H](/C=C(\C#N)C(N)=O)C[C@@H]1CCCNC1=O` [US11859014, Compound 36], the Ki in test [2] turned out to be 3600 nM.

Molecule `O=C[C@H](C[C@@H]1CCCNC1=O)NC(=O)[C@H](Cc1ccccc1)NC(=O)[C@H](Cc1cccc2ccccc12)NC(=O)OCc1ccccc1` [US11859014, Compound 83] returned an IC50 in test [2] of 482 nM.

In test [2], `CCOC(=O)/C=C/[C@H](C[C@@H]1CCNC1=O)NC(=O)[C@@H](CC(=O)[C@@H](NC(=O)c1cc(C)on1)C(C)C)Cc1ccc(F)cc1` [US11859014, Compound rupintrivir] gave a half-maximal inhibitory concentration (IC50) of 23600 nM and an inhibition constant Ki of 8200 nM.
